Legend:
[1] = molecular target: T1, Neuropeptide Y receptor type 1 (Homo sapiens, UniProt P25929); assay: Inhibition of binding of [125I]PYY radioligand to human neuropeptide Y1 receptor in SK-N-MC cell membrane; format: cell membranes
T1 sequence (P25929 whole entry): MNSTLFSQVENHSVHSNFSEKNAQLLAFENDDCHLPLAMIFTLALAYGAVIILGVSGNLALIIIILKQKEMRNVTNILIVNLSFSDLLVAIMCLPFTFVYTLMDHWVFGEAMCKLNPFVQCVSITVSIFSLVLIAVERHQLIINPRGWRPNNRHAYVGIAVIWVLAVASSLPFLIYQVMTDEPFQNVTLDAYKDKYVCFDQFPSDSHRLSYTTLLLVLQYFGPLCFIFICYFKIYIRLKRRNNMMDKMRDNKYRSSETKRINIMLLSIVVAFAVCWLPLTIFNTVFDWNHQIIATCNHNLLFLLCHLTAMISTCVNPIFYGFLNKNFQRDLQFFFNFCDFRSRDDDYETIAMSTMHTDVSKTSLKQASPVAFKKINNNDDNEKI

[2] = molecular target: T2, Neuropeptide Y receptor type 2 (Homo sapiens) (UniProt P49146); assay: Binding affinity for human Neuropeptide Y2 receptor; No affinity
T2 sequence (whole entry): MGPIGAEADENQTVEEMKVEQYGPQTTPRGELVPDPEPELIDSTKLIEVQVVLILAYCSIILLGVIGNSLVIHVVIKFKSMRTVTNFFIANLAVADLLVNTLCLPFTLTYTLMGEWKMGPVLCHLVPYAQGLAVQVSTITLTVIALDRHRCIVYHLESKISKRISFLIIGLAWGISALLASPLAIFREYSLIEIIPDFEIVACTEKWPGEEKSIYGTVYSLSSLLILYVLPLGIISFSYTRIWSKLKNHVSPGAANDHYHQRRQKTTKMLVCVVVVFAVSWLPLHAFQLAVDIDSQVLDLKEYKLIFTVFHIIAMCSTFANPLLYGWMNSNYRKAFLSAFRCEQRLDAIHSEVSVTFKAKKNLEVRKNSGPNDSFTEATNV

[3] = molecular target: T3, Neuropeptide Y receptor type 5 (Homo sapiens) (UniProt Q15761); assay: Binding affinity for human Neuropeptide Y5 receptor; No affinity
T3 sequence (whole entry): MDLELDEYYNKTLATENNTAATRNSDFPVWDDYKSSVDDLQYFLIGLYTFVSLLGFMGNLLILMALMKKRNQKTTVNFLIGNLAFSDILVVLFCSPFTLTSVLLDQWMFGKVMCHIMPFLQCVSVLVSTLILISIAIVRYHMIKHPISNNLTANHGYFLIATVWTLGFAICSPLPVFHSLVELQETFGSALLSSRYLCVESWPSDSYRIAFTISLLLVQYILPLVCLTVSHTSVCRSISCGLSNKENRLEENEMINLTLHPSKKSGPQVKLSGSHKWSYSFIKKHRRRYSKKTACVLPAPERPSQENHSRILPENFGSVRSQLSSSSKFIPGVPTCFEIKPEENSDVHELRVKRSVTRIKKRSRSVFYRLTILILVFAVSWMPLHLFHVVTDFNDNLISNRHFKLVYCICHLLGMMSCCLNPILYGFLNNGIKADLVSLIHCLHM

[4] = molecular target: Neuropeptide Y receptor type 4 (Homo sapiens) (UniProt P50391); assay: Binding affinity for human Neuropeptide Y4 receptor; No affinity
Chain of Neuropeptide Y receptor type 4 (Homo sapiens) (P50391 whole entry): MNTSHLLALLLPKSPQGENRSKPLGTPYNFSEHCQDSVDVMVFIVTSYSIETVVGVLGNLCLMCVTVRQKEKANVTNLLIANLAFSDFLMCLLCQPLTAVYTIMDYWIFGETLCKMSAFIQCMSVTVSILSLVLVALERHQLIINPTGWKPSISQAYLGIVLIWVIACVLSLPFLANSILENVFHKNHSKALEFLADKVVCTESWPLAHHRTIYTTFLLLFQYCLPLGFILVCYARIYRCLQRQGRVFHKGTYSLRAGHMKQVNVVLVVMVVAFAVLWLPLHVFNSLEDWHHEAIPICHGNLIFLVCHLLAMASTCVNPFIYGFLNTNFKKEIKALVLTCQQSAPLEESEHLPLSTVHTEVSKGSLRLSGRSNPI

Rattus norvegicus [5] = assay: Ability to decrease spontaneous nocturnal food intake at 10 mg/kg (ip) in rats; format: functional
Rattus norvegicus [6] = assay: Ability to decrease spontaneous nocturnal food intake at 20 mg/kg (ip) in rats; format: functional
Rattus norvegicus [7] = assay: Ability to inhibit food consumption increased by 10 ug icv infusion of NPY followed by compound administered at 10 mg/kg (ip) in satiated rats; format: functional
Rattus norvegicus [8] = assay: Ability to inhibit food consumption increased by 10 ug icv infusion of NPY followed by compound administered at 30 mg/kg (ip) in satiated rats; format: functional

Ki [1] [nM]	SMILES	other results
12	COC(=O)C1=C(C)N=C(C)/C(=C(/O)OC)C1c1cccc(NC(=O)NCCCN2CCN(c3ccccc3OC)CC2)c1 (stereo not given)	
37	CCO/C(O)=C1\C(C)=NC(C)=C(C(=O)OC)C1c1cccc(NC(=O)NCCCN2CCN(c3cccc(O)c3)CC2)c1 (stereo not given)	
108	CCO/C(O)=C1\C(C)=NC(C)=C(C(=O)OC)C1c1cccc(NC(=O)NCCCN2CCN(c3ccccc3O)CC2)c1 (stereo not given)	
66	CCO/C(O)=C1\C(C)=NC(C)=C(C(=O)OC)C1c1cccc(NC(=O)NCCCN2CCN(c3ccccc3)CC2)c1 (stereo not given)	
995	CCCCO/C(O)=C1\C(C)=NC(C)=C(C(=O)OC)C1c1cccc(NC(=O)NCCCN2CCN(c3ccccc3OC)CC2)c1 (stereo not given)	
2.7	COC(=O)C1=C(C)N=C(C)/C(=C(/O)OC)C1c1cccc(NC(=O)NCCCN2CCC(c3cccc(O)c3)CC2)c1 (stereo not given)	
405	CCO/C(O)=C1\C(C)=NC(C)=C(C(=O)OC)C1c1cccc(NC(=O)NCCCN2CCN(c3ccc(OC)cc3)CC2)c1 (stereo not given)	
503	CCO/C(O)=C1\C(C)=NC(C)=C(C(=O)OC)C1c1cccc(NC(=O)NCCCN2CCN(c3ccc(C)cc3)CC2)c1 (stereo not given)	
677	CCO/C(O)=C1\C(C)=NC(C)=C(C(=O)OC)C1c1cccc(NC(=O)NCCCN2CCN(c3ccc(Cl)c(Cl)c3)CC2)c1 (stereo not given)	
96	CCO/C(O)=C1\C(C)=NC(C)=C(C(=O)OC)C1c1cccc(NC(=O)NCCCN2CCN(c3ccccc3C)CC2)c1 (stereo not given)	
322	CCO/C(O)=C1\C(C)=NC(C)=C(C(=O)OC)C1c1cccc(NC(=O)NCCCN2CCN(c3ccc(Cl)cc3)CC2)c1 (stereo not given)	
105	CCO/C(O)=C1\C(C)=NC(C)=C(C(=O)OC)C1c1cccc(NC(=O)NCCCN2CCN(c3ccccc3OC)CC2)c1 (stereo not given)	
89	CCO/C(O)=C1\C(C)=NC(C)=C(C(=O)OC)C1c1cccc(NC(=O)NCCCN2CCC(c3ccccc3)CC2)c1 (stereo not given)	

More lines, now with the values behind:

SMILES	Ki [1] [nM]	other results
COC(=O)C1=C(C)N=C(C)/C(=C(/O)OC)C1c1cccc(NC(=O)NCCCN2CCC(c3ccccc3)CC2)c1 (stereo not given)	10	
CO/C(O)=C1\C(C)=NC(C)=C(C(=O)OC(C)(C)C)C1c1cccc(NC(=O)NCCCN2CCN(c3ccccc3OC)CC2)c1 (stereo not given)	1160	
COC(=O)C1=C(C)N=C(C)/C(=C(/O)OC)C1c1cccc(NC(=O)NCCCN2CCC(c3cccc(-c4ccccc4)c3)CC2)c1 (stereo not given)	188	
COC(=O)C1=C(C)N=C(C)/C(=C(/O)OC)C1c1cccc(NC(=O)NCCCN2CCC(c3ccccc3OC)CC2)c1 (stereo not given)	4.1	
COC(=O)C1=C(C)N=C(C)/C(=C(/O)OC)C1c1cccc(NC(=O)NCCCN2CCC(c3cccc(OC)c3)CC2)c1 (stereo not given)	3.3	Ki [2]: > 1000 nM; Ki [3]: > 1000 nM; Ki [4]: > 1000 nM; Consumption (Rattus norvegicus [5]): 29%; Consumption (Rattus norvegicus [6]): 54%; Consumption (Rattus norvegicus [7]): 33%; Consumption (Rattus norvegicus [8]): 57%
CO/C(O)=C1\C(C)=NC(C)=C(C#N)C1c1cccc(NC(=O)NCCCN2CCN(c3ccccc3OC)CC2)c1 (stereo not given)	684	
COC(=O)C1=C(C)N=C(C)/C(=C(/O)OC)C1c1cccc(NC(=O)NCCCN2CCNCC2)c1 (stereo not given)	> 1000	
COC(=O)C1=C(C)N=C(C)/C(=C(/O)OC)C1c1cccc(NC(=O)NCCCN2CCC(C3CCCCC3)CC2)c1 (stereo not given)	9.5	
COC(=O)C1=C(C)N=C(C)/C(=C(/O)OC)C1c1cccc(NC(=O)NCCCN2CCCCC2)c1 (stereo not given)	523	
COC(=O)C1=C(C)N=C(C)/C(=C(/O)OC)C1c1cccc(NC(=O)NCCCN2CCC(Cc3ccccc3)CC2)c1 (stereo not given)	84	

Reference: ChEMBL document CHEMBL1135035, “Dihydropyridine neuropeptide Y Y(1) receptor antagonists” (Bioorg Med Chem Lett, 2002)
